According to US12686665B2, “Bicyclic fused ring derivative or salt thereof and pharmaceutical composition comprising same” (YUHAN CORPORATION, priority 2021, dated 2026):
Structures can show the parent of a compound that is named as a salt.

target: T1, recombinant human Lysyl Oxidase-Like 2 (LOXL2) (Homo sapiens, UniProt Q9Y4K0); test: Amplex Red HRP-coupled amine oxidase assay, recombinant human LOXL2; type: biochemical; settings: 60 min incubation with enzyme at 37° C., putrescine substrate, read-out: Inhibitory activity (IC50, nM) human LOXL2
T1 construct: purchased R&D systems
T1 sequence (Q9Y4K0 26-774): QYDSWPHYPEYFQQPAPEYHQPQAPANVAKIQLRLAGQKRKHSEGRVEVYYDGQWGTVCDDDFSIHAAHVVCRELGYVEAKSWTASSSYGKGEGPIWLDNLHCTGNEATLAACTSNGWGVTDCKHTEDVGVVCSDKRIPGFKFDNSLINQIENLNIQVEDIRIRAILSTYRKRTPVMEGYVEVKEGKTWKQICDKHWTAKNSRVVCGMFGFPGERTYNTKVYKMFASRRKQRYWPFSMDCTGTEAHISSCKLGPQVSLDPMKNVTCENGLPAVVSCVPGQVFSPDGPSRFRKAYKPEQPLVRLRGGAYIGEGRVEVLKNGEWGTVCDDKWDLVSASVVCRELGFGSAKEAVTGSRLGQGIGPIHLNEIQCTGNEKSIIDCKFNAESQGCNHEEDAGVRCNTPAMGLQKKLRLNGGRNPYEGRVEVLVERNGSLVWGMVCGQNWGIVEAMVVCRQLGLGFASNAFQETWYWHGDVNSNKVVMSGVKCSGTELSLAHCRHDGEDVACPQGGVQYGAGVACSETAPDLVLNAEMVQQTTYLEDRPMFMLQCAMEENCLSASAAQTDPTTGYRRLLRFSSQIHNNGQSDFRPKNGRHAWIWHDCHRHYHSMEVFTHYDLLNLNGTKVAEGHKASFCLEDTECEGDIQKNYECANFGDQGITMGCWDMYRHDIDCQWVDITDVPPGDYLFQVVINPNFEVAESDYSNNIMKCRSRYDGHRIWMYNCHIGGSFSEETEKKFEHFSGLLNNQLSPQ
Description: The activities of the compounds according to the present invention against recombinant human Lysyl Oxidase-Like 2 (recombinant human LOXL2, R&D systems) were evaluated by measuring the levels of hydrogen peroxide in the HRP (horseradish peroxidase) coupled reactions, with the Amplex Red Hydrogen Peroxide Assay Kit (Molecular Probes, Invitrogen, USA). The tests were carried out at 37° C., and putrescine was used as a substrate. In the HRP coupling reaction, the oxidation of 10-acetyl-3,7-dihydroxyphenoxazine (Amplex Red reagent) by hydrogen peroxide generates a fluorescent product, i.e., resorufin. Briefly, the test compounds were dissolved in dimethyl sulfoxide (DMSO) at a concentration of 20 mM. Dose-response measurements were carried out by serial dilutions in DMSO to generate a six-point curve. The upper concentration was adjusted according to the potency of the compound, and then diluted with the reaction buffer to obtain a final DMSO concentration of 1%. Purified human LOXL2 in 50 mM sodium phosphate buffer (pH7.4) was added to each well of a 96 well black plate. The test compounds dissolved in DMSO were incubated with the human LOXL2 enzyme at 37° C. for 60 minutes. After the incubation for 60 minutes, a reaction mixture containing 400 μM Amplex Red reagent, 30 mM putrescine, and 2 U/mL HRP in 50 mM sodium phosphate buffer (pH 7.4) was added to each well. Fluorescence was measured with a microplate reader (Flexstation3, Molecular Devices), under the conditions of excitation at 530 nm and emission at 590 nm, 1 hour after the addition of the mixture. Inhibition by each compound was measured as % reduction in signal, compared to the control without an inhibitor (diluted DMSO only). The data were fixed to a four-variable logistic model, and […] values were calculated using the GraphPad Prism program.

Row | Compound | IC50
1 | CCN(CC)S(=O)(=O)c1ccc(OC)c(-c2cc(C(=O)OC)cc3c2ncn3C/C(F)=C/CN)c1 [Example 26, methyl (Z)-1-(4-amino-2-fluorobut-2-en-1-yl)-4-(5-(N,N-diethylsulfamoyl)-2-methoxyphenyl)-1H-benzo[d]imidazol-6-carboxylate hydrochloride] | 62.5 nM
2 | COC(=O)c1cc(-c2cccc(S(=O)(=O)NCc3ccc(OC)cc3)c2)c2ncn(C/C(F)=C/CN)c2c1 [Example 32, methyl (Z)-1-(4-amino-2-fluorobut-2-en-1-yl)-4-(3-(N-(4-methoxybenzyl)sulfamoyl)phenyl)-1H-benzo[d]imidazol-6-carboxylate hydrochloride] | 60.1 nM
3 | CCN(CC)S(=O)(=O)c1cccc(-c2cc(C(=O)OC)cc3c2ncn3C/C(F)=C/CN)c1 [Example 37, methyl (Z)-1-(4-amino-2-fluorobut-2-en-1-yl)-4-(3-(N,N-diethylsulfamoyl)phenyl)-1H-benzo[d]imidazol-6-carboxylate hydrochloride] | 70.3 nM
4 | CS(=O)(=O)c1cccc(-c2cccc3c2nnn3C/C(F)=C/CN)c1 [Example 106, (Z)-3-fluoro-4-(4-(3-(methylsulfonyl)phenyl)-1H-benzo[d][1,2,3]triazol-1-yl)but-2-en-1-amine hydrochloride] | 94 nM
5 | COc1ccc(-c2cccc3c2nnn3C/C(F)=C/CN)cc1S(=O)(=O)NC(C)C [Example 109, (Z)-5-(1-(4-amino-2-fluorobut-2-en-1-yl)-1H-benzo[d][1,2,3]triazol-4-yl)-N-isopropyl-2-methoxybenzenesulfonamide hydrochloride] | 72 nM
6 | NC/C=C(\F)Cn1nnc2c(-c3cccc(S(=O)(=O)NC4CC4)c3)cccc21 [Example 110, (Z)-3-(1-(4-amino-2-fluorobut-2-en-1-yl)-1H-benzo[d][1,2,3]triazol-4-yl)-N-cyclopropylbenzenesulfonamide hydrochloride] | 60 nM
7 | COc1ccc(S(=O)(=O)N2CCN(C)CC2)cc1-c1cccc2c1nnn2C/C(F)=C/CN [Example 113, (Z)-3-fluoro-4-(4-(2-methoxy-5-((4-methylpiperazin-1-yl)sulfonyl)phenyl)-1H-benzo[d][1,2,3]triazol-1-yl)but-2-en-1-amine hydrochloride] | 65 nM
8 | COC(=O)c1cc(-c2cccc(S(=O)(=O)N3CCC(F)(F)C3)c2)c2nnn(C/C(F)=C/CN)c2c1 [Example 115, methyl (Z)-1-(4-amino-2-fluorobut-2-en-1-yl)-4-(3-((3,3-difluoropyrrolidin-1-yl)sulfonyl)phenyl)-1H-benzo[d][1,2,3]triazol-6-carboxylate hydrochloride] | 58.7 nM
9 | COC(=O)c1cc(-c2cccc(S(=O)(=O)NCc3ccc(OC)cc3)c2)c2nnn(C/C(F)=C/CN)c2c1 [Example 125, methyl (Z)-1-(4-amino-2-fluorobut-2-en-1-yl)-4-(3-(N-(4-methoxybenzyl)sulfamoyl)phenyl)-1H-benzo[d][1,2,3]triazol-6-carboxylate hydrochloride] | 70.6 nM
10 | COC(=O)c1cc(-c2cc(S(=O)(=O)C(F)(F)F)ccc2C)c2nnn(C/C(F)=C/CN)c2c1 [Example 128, methyl (Z)-1-(4-amino-2-fluorobut-2-en-1-yl)-4-(2-methyl-5-((trifluoromethyl)sulfonyl)phenyl)-1H-benzo[d][1,2,3]triazol-6-carboxylate hydrochloride] | 94.2 nM

The next molecules have a lower IC50 than those just listed; values first:

Row | IC50 | Compound
11 | 55.6 nM | COC(=O)c1cc(-c2cccc(S(=O)(=O)N3CCCCC3)c2)c2ncn(C/C(F)=C/CN)c2c1 [Example 33, methyl (Z)-1-(4-amino-2-fluorobut-2-en-1-yl)-4-(3-(piperidin-1-ylsulfonyl)phenyl)-1H-benzo[d]imidazol-6-carboxylate hydrochloride]
12 | 54.2 nM | COC(=O)c1cc(-c2ccc(OC)c(S(=O)(=O)NC(C)C)c2)c2ncn(C/C(F)=C/CN)c2c1 [Example 28, methyl (Z)-1-(4-amino-2-fluorobut-2-en-1-yl)-4-(3-(N-isopropylsulfamoyl)-4-methoxyphenyl)-1H-benzo[d]imidazol-6-carboxylate hydrochloride]
13 | 52.4 nM | COC(=O)c1cc(-c2cccc(S(=O)(=O)N3CCCC3)c2)c2nnn(C/C(F)=C/CN)c2c1 [Example 116, methyl (Z)-1-(4-amino-2-fluorobut-2-en-1-yl)-4-(3-(pyrrolidin-1-ylsulfonyl)phenyl)-1H-benzo[d][1,2,3]triazol-6-carboxylate hydrochloride]
14 | 51 nM | NC/C=C(\F)Cn1nnc2c(-c3cccc(S(=O)(=O)N4CCCC4)c3)cccc21 [Example 104, (Z)-3-fluoro-4-(4-(3-(pyrrolidin-1-ylsulfonyl)phenyl)-1H-benzo[d][1,2,3]triazol-1-yl)but-2-en-1-amine hydrochloride]
15 | 42.9 nM | COC(=O)c1cc(-c2ccc(OC)c(S(=O)(=O)NC(C)C)c2)c2nnn(C/C(F)=C/CN)c2c1 [Example 121, methyl (Z)-1-(4-amino-2-fluorobut-2-en-1-yl)-4-(3-(N-isopropylsulfamoyl)-4-methoxyphenyl)-1H-benzo[d][1,2,3]triazol-6-carboxylate hydrochloride]
16 | 34 nM | COC(=O)c1cc(-c2cccc(S(C)(=O)=O)c2)c2nnn(C/C(F)=C/CN)c2c1 [Example 118, methyl (Z)-1-(4-amino-2-fluorobut-2-en-1-yl)-4-(3-(methylsulfonyl)phenyl)-1H-benzo[d][1,2,3]triazol-6-carboxylate hydrochloride]
17 | 32.2 nM | COC(=O)c1cc(-c2cccc(S(=O)(=O)NC3CC3)c2)c2nnn(C/C(F)=C/CN)c2c1 [Example 122, methyl (Z)-1-(4-amino-2-fluorobut-2-en-1-yl)-4-(3-(N-cyclopropylsulfamoyl)phenyl)-1H-benzo[d][1,2,3]triazol-6-carboxylate hydrochloride]
18 | 24.4 nM | CONC(=O)c1cc(-c2cccc(S(=O)(=O)N3CCCC3)c2)c2nnn(C/C(F)=C/CN)c2c1 [Example 133, (Z)-1-(4-amino-2-fluorobut-2-en-1-yl)-N-methoxy-4-(3-(pyrrolidin-1-ylsulfonyl)phenyl)-1H-benzo[d][1,2,3]triazol-6-carboxamide hydrochloride]
19 | 19 nM | CCS(=O)(=O)c1cccc(-c2cc(C(=O)OC)cc3c2nnn3C/C(F)=C/CN)c1 [Example 127, methyl (Z)-1-(4-amino-2-fluorobut-2-en-1-yl)-4-(3-(ethylsulfonyl)phenyl)-1H-benzo[d][1,2,3]triazol-6-carboxylate hydrochloride]
20 | 18.7 nM | CONC(=O)c1cc(-c2ccc(OC)c(S(=O)(=O)N(C)C)c2)c2nnn(C/C(F)=C/CN)c2c1 [Example 132, (Z)-1-(4-amino-2-fluorobut-2-en-1-yl)-4-(3-(N,N-dimethylsulfamoyl)-4-methoxyphenyl)-N-methoxy-1H-benzo[d][1,2,3]triazol-6-carboxamide hydrochloride]
21 | 18.6 nM | COC(=O)c1cc(-c2ccc(OC)c(S(=O)(=O)N(C)C)c2)c2nnn(C/C(F)=C/CN)c2c1 [Example 114, methyl (Z)-1-(4-amino-2-fluorobut-2-en-1-yl)-4-(3-(N,N-dimethylsulfamoyl)-4-methoxyphenyl)-1H-benzo[d][1,2,3]triazol-6-carboxylate hydrochloride]
22 | 14.2 nM | COC(=O)c1cc(-c2cccc(S(=O)(=O)N(C)C)c2)c2nnn(C/C(F)=C/CN)c2c1 [Example 124, methyl (Z)-1-(4-amino-2-fluorobut-2-en-1-yl)-4-(3-(N,N-dimethylsulfamoyl)phenyl)-1H-benzo[d][1,2,3]triazol-6-carboxylate hydrochloride]
23 | 12.6 nM | CNS(=O)(=O)c1cccc(-c2cc(C(=O)OC)cc3c2nnn3C/C(F)=C/CN)c1 [Example 123, methyl (Z)-1-(4-amino-2-fluorobut-2-en-1-yl)-4-(3-(N-methylsulfamoyl)phenyl)-1H-benzo[d][1,2,3]triazol-6-carboxylate hydrochloride]
